Laboratory results as given in PubChem BioAssay AID463204 (Broad Institute, 2010).
Calls of active or inactive are those of the source.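 The calls were made as follows: active = AC50 no more than ten times the top concentration tested, that is within one log above it; inconclusive = flat curve fit with activity between 30% and 70%, or invalid poor fit; inactive = AC50 beyond ten times the top tested dose.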

tested on: S. cerevisiae Mot1-301 ts growth rescue, BacTiter-Glo ATP luminescence; experiment: restored Mot1-301 yeast growth at 38.5C – whole organism, S. cerevisiae, Mot1-301 ts mutant, luminescence, dose retest, SUMOylation pathway inhibitor project, confirmation (AID 463204);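 also: growth at restrictive 38.5 degrees C of Mot1-301 OY566 strain; actives raise luminescence by restoring growth of the ts mutant at high temperature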

| SMILES | AC50 |
| --- | --- |
| Cc1ccc(-c2nc(CS(=O)(=O)CC(=O)NC3CCCCC3C)c(C)o2)cc1 (stereo not given) | > 42 µM (inactive) |
| O=C1N=C(N2CCN(c3ccccc3)CC2)SC1Cc1ccccc1 (stereo not given) | > 42 µM (inactive) |
| O=C(NNS(=O)(=O)c1c(F)cc(F)c(Cl)c1F)C12CC3CC(CC(C3)C1)C2 | 3.45 µM |
| CCCc1nnc(NC(=O)c2cn(CC)c3cc(N4CCN(C)CC4)c(F)cc3c2=O)s1 | > 21 µM (inactive) |
| Cc1ccc(-c2csc(C3=C(O)CN(NC(=O)c4ccco4)C3=N)n2)cc1 | > 42 µM (inactive) |
| O=C(CSCc1ccc(Cl)cc1)N1CCCCC1 | > 42 µM (inactive) |
| CCOC(=O)C1CCN(Cc2ccc(OCc3ccccc3)cc2)CC1 | > 42 µM (inactive) |
| COc1ccc(NC(=O)Nc2ccccc2C(=O)N2CCCC2)cc1 | > 42 µM (inactive) |
| Cc1ccc2nc(N/N=C/c3ccccc3F)nc(-c3ccccc3)c2c1 | > 42 µM (inactive) |
| Nc1nc(SCc2nc3scc(-c4cccs4)c3c(=O)[nH]2)n[nH]1 | > 42 µM (inactive) |
| Cc1ccccc1-c1nc(CN2CCCC(C(=O)NCc3cccnc3)C2)c(C)o1 (stereo not given) | > 42 µM (inactive) |
| CCc1c(C(=O)N2CCN(c3ccccc3F)CC2)[nH]c(C)c1C(C)=O | > 42 µM (inactive) |
| CC(=O)N1CCN(CC(O)COc2ccc(OCc3ccccc3)cc2)CC1 (stereo not given) | > 42 µM (inactive) |
| CN(C=O)CP(=O)(O)CN(C)C=O | > 42 µM (inactive) |
| CCOc1ccc(-n2cc(C(=O)NCCOC)c3cc(OC)c(OC)cc3c2=O)cc1 | > 42 µM (inactive) |
| CCn1ncc(Br)c1C(=O)Nc1ccc(OC(F)(F)F)cc1 | > 42 µM (inactive) |
| Cn1c(SCC(=O)Nc2nnc(-c3ccccc3)o2)nnc1C1CC1 | > 42 µM (inactive) |
| COC(=O)C1CN(C(=O)C(C)Oc2ccc(F)cc2)c2ccccc2O1 (stereo not given) | > 42 µM (inactive) |
| CC(C)N=C(NS(=O)(=O)NC(=O)c1ccccc1)c1ccccc1 | > 42 µM (inactive) |
| COCC(=O)n1nc(-c2ccccc2)nc1NCc1ccc(N(C)C)cc1 | > 42 µM (inactive) |

| SMILES | AC50 |
| --- | --- |
| N[C@@H](Cc1ccc(O)c(I)c1)C(=O)O | > 42 µM (inactive) |
| Cc1nc2c(-c3ccc(F)cc3)cnn2c2c1CCC2 | > 42 µM (inactive) |
| Cc1ccc(N(C(=O)Cn2nnc3ccccc32)C(C(=O)NC2CCCCC2)c2cn(C)nc2C)cc1 (stereo not given) | > 21 µM (inactive) |
| COc1cc(S(=O)(=O)N2CCN(c3ccccc3)CC2)ccc1F | > 42 µM (inactive) |
| O=C1N=C(N2CCOCC2)S/C1=C\c1cccnc1 | > 42 µM (inactive) |
| COC(=O)C1=C(C)NC(C)=C([N+](=O)[O-])C1c1ccccc1C(F)(F)F (stereo not given) | > 42 µM (inactive) |
| CC1=C/C(=N\OS(=O)(=O)c2ccccc2)C(C(C)C)=CC1=O | 0.86 µM |
| Cc1nnc(SCC(=O)NC(C)(C)C)n1NCc1ccc(Cl)cc1 | > 42 µM (inactive) |
| Cc1cc(NC(=O)/C=C/c2ccco2)ccc1NC(=O)c1ccccc1 | > 42 µM (inactive) |
| COc1ccc(NC(=O)c2ccc(-c3csc(C)n3)cc2)cc1 | > 42 µM (inactive) |
| C=CCn1c(CCC)nc2ccccc21 | > 42 µM (inactive) |
| COc1ccc(Cl)cc1C(=O)NCCc1ccc(S(=O)(=O)NC(=O)NC2CCCCC2)cc1 | > 42 µM (inactive) |
| Cc1nn(C)c(C)c1-c1c(C#N)c(N)nc2c1CCCCCC2 | 16.9 µM |
| CN(c1ccccc1)c1ccc(/C=C/[N+](=O)[O-])cc1 | 5.85 µM |
| CC[n+]1c(/C=C(\C)SC)sc2ccccc21 | 29.5 µM |
| Cc1ccc(S(=O)(=O)NCC(C)n2cncn2)cc1 (stereo not given) | > 42 µM (inactive) |
| COc1ccc(OC)c(NC(=O)CNC(=O)Cn2ccc3ccccc3c2=O)c1 | > 42 µM (inactive) |
| C=CCn1c(-c2ccc(OC)cc2)nc2ccccc21 | > 42 µM (inactive) |
| CCOc1ccc(C(C(=O)NC2CCCC2)N(C(=O)c2snc(C(N)=O)c2N)C2CCCC2)cc1 (stereo not given) | 42 µM |
| Cc1c(NC(=O)CN2C(=O)NC(C)(c3ccc(OC(F)F)cc3)C2=O)c(=O)n(-c2ccccc2)n1C (stereo not given) | > 42 µM (inactive) |
